Molecules are shown by their SMILES. ≈ marks a conversion by molar mass, not a printed value.

Holding throughout (type): functional, cell-based
Assay [1] is described as follows: Cytotoxicity against human HTB38 cells. Particulars: HTB-38.
A further assay has as its system P388. Description: Cytotoxicity against mouse P388 cells.
In a further assay the test system is A549. Description: Cytotoxicity against human A549 cells.

As for `C=C[C@](C)(CCC=C(C)C)c1ccc2c3c(c[nH]c13)C[C@@H](COC(C)=O)NC(=O)[C@H](C(C)C)N2C` [LYNGBYATOXIN A ACETATE], the IC50 (in assay [1]; in the assay on P388; in the assay with A549) was 0.05 µg/mL throughout.

For `C=C(C/C=C/C=C/Cl)CC(OC(=O)[C@@H]1CCC(=O)N1C)C(C)(C)C` (stereo partly specified), the IC50 (in assay [1]; in the assay on P388; in the assay on A549) was 2.5 µg/mL (≈ 7.06 µM) each time.

The values above are taken from ChEMBL document CHEMBL1155560, “Two complex proline esters from the sea hare Stylocheilus longicauda” (J Nat Prod, 2000).
